# In US6677460B1, “Aromatic carboxylic acid bicyclic sulfur compounds” (Idemitsu Kosan Company, Limited, priority 1993, dated 2004):
# Experiments:
# Type in all cases: in vivo
# corn [1] = assay: Upland soil treatment test (6), phytotoxicity; details: 100 g/hectare, 20th day after treatment; note: ranges in brackets are in %
# Method: (§1) 90 Parts by weight of the above carrier and 10 parts by weight of each of Compounds obtained in the above Preparation Examples were uniformly pulverized and mixed to obtain herbicides. Further, for Herbicide Comparative Examples, comparative herbicides were prepared by uniformly pulverizing and mixing 90 parts by weight of the above carrier and 10 parts by weight of each of the following Compounds x, y, A, B and C.
# (§2) (6) Biological Test (Upland Soil Treatment Test, Herbicide Examples 27˜42 and Comparative Example 10).
# (§3) Seeds of weeds such as large crabgrass, barnyard grass, green foxtail, cocklebur , velvetleaf and slender amaranth and seeds of corn, wheat and barley were sown in 1/5,000-are Wagner pots filled with upland soil, and covered with upland soil. Then, a predetermined amount of the herbicide prepared in the above (1) was suspended in water and uniformly sprayed onto the soil surface. Thereafter, the plants were grown in the greenhouse, and on 20th day after the treatment, the herbicide was evaluated f or herbicidal efficacy.
# (§4) The dosage of each herbicide is indicated as an amount of the active ingredient per hectare. Further, air-dried weight were measured and the herbicidal efficacy and the phytotoxicity to corn are shown on the basis of the ratings described below.
# slender amaranth [2] = assay: Upland soil treatment test (6); details: 100 g/hectare, 20th day after treatment; note: ranges in brackets are in %
# Method: as §1, §2, §3, §4
# velvetleaf [3] = assay: Upland soil treatment test (6); details: 100 g/hectare, 20th day after treatment; note: ranges in brackets are in %
# Method: as §1, §2, §3, §4
# barnyard grass [4] = assay: Upland soil treatment test (6); details: 100 g/hectare, 20th day after treatment; note: ranges in brackets are in %
# Method: as §1, §2, §3, §4
# large crabgrass [5] = assay: Upland soil treatment test (6); details: 100 g/hectare, 20th day after treatment; note: ranges in brackets are in %
# Method: as §1, §2, §3, §4
# cocklebur [6] = assay: Upland soil treatment test (6); details: 100 g/hectare, 20th day after treatment; note: ranges in brackets are in %
# Method: as §1, §2, §3, §4
# green foxtail [7] = assay: Upland soil treatment test (6); details: 100 g/hectare, 20th day after treatment; note: ranges in brackets are in %
# Method: as §1, §2, §3, §4
# slender amaranth [8] = assay: Upland soil treatment test (3); details: 20th day after treatment; note: ranges in brackets are in %
# Method: as §1
# (§5) (3) Biological Test (Upland Soil Treatment Test, Herbicide Examples 3 and 4 and Herbicide Comparative Examples 3 and 4)
# as §3, with “barnyardgrass,” for “barnyard grass,”, “cocklebur,” for “cocklebur ,”, “for” for “f or”
# (§6) The herbicidal efficacy and the phytotoxicity to crops are shown on the basis of the ratings described in (2) Foliar treatment test.
# velvetleaf [9] = assay: Upland soil treatment test (3); details: 20th day after treatment; note: ranges in brackets are in %
# Method: as §1, §5
# as §3, with “barnyardgrass,” for “barnyard grass,”, “cocklebur,” for “cocklebur ,”, “for” for “f or”
# as §6
# barnyard grass [10] = assay: Upland soil treatment test (3); details: 20th day after treatment; note: ranges in brackets are in %
# Method: as §1, §5
# as §3, with “barnyardgrass,” for “barnyard grass,”, “cocklebur,” for “cocklebur ,”, “for” for “f or”
# as §6
# large crabgrass [11] = assay: Upland soil treatment test (3); details: 20th day after treatment; note: ranges in brackets are in %
# Method: as §1, §5
# as §3, with “barnyardgrass,” for “barnyard grass,”, “cocklebur,” for “cocklebur ,”, “for” for “f or”
# as §6
# cocklebur [12] = assay: Upland soil treatment test (3); details: 20th day after treatment; note: ranges in brackets are in %
# Method: as §1, §5
# as §3, with “barnyardgrass,” for “barnyard grass,”, “cocklebur,” for “cocklebur ,”, “for” for “f or”
# as §6
# green foxtail [13] = assay: Upland soil treatment test (3); details: 20th day after treatment; note: ranges in brackets are in %
# Method: as §1, §5
# as §3, with “barnyardgrass,” for “barnyard grass,”, “cocklebur,” for “cocklebur ,”, “for” for “f or”
# as §6
# corn [14] = assay: Upland soil treatment test (5), phytotoxicity; details: dosage 100 g a.i./hectare, 20th day after treatment
# Method: as §1
# (§7) (5) Biological Test (Upland Soil Treatment Test, Herbicide Examples 10-26 and Comparative Example 9)
# as §3, with “cocklebur,” for “cocklebur ,”, “for” for “f or”
# (§8) The dosage of each herbicide is indicated as an amount of the active ingredient per hectare. Further, air-dried weight were measured, and herbicidal efficacy and the pytotoxicity to corn are shown on the basis of the ratings described below.
# slender amaranth [15] = assay: Upland soil treatment test (5); details: dosage 100 g a.i./hectare, 20th day after treatment; note: ranges in brackets are in %
# Method: as §1, §7
# as §3, with “cocklebur,” for “cocklebur ,”, “for” for “f or”
# as §8
# velvetleaf [16] = assay: Upland soil treatment test (5); details: dosage 100 g a.i./hectare, 20th day after treatment; note: ranges in brackets are in %
# Method: as §1, §7
# as §3, with “cocklebur,” for “cocklebur ,”, “for” for “f or”
# as §8
# barnyard grass [17] = assay: Upland soil treatment test (5); details: dosage 100 g a.i./hectare, 20th day after treatment; note: ranges in brackets are in %
# Method: as §1, §7
# as §3, with “cocklebur,” for “cocklebur ,”, “for” for “f or”
# as §8
# large crabgrass [18] = assay: Upland soil treatment test (5); details: dosage 100 g a.i./hectare, 20th day after treatment; note: ranges in brackets are in %
# Method: as §1, §7
# as §3, with “cocklebur,” for “cocklebur ,”, “for” for “f or”
# as §8
# cocklebur [19] = assay: Upland soil treatment test (5); details: dosage 100 g a.i./hectare, 20th day after treatment; note: ranges in brackets are in %
# Method: as §1, §7
# as §3, with “cocklebur,” for “cocklebur ,”, “for” for “f or”
# as §8
# green foxtail [20] = assay: Upland soil treatment test (5); details: dosage 100 g a.i./hectare, 20th day after treatment; note: ranges in brackets are in %
# Method: as §1, §7
# as §3, with “cocklebur,” for “cocklebur ,”, “for” for “f or”
# as §8
# slender amaranth [21] = assay: Foliar treatment test (2); details: 20th day after treatment; note: ranges in brackets are in %
# Method: as §1
# (§9) (2) Biological Test (Foliar Treatment Test, Herbicide Examples 1 and 2 and Herbicide Comparative Examples 1 and 2)
# as §3, with “cocklebur,” for “cocklebur ,”, “The seeds were grown in a greenhouse, and at the stage of 1˜2 leaves of these plants,” for “Then,”, “leaf and stalk portions at a rate of 200 liter/10 are.” for “the soil surface.”, “for” for “f or”
# (§10) The herbicidal efficacy and phytotoxcity to crops were shown on the basis of the following ratings.
# (§11) The ratio of remaining plant weight to non-treated was determined on the basis of the ratio of remaining plant weight to non-treated=(remaining plant weight in treated plot/remaining plant weight in non-treated plot)×100. This is also applicable to biological tests hereinafter.
# velvetleaf [22] = assay: Foliar treatment test (2); details: 20th day after treatment; note: ranges in brackets are in %
# Method: as §1, §9
# as §3, with “cocklebur,” for “cocklebur ,”, “The seeds were grown in a greenhouse, and at the stage of 1˜2 leaves of these plants,” for “Then,”, “leaf and stalk portions at a rate of 200 liter/10 are.” for “the soil surface.”, “for” for “f or”
# as §10, §11
# barnyard grass [23] = assay: Foliar treatment test (2); details: 20th day after treatment; note: ranges in brackets are in %
# Method: as §1, §9
# as §3, with “cocklebur,” for “cocklebur ,”, “The seeds were grown in a greenhouse, and at the stage of 1˜2 leaves of these plants,” for “Then,”, “leaf and stalk portions at a rate of 200 liter/10 are.” for “the soil surface.”, “for” for “f or”
# as §10, §11
# large crabgrass [24] = assay: Foliar treatment test (2); details: 20th day after treatment; note: ranges in brackets are in %
# Method: as §1, §9
# as §3, with “cocklebur,” for “cocklebur ,”, “The seeds were grown in a greenhouse, and at the stage of 1˜2 leaves of these plants,” for “Then,”, “leaf and stalk portions at a rate of 200 liter/10 are.” for “the soil surface.”, “for” for “f or”
# as §10, §11
# cocklebur [25] = assay: Foliar treatment test (2); details: 20th day after treatment; note: ranges in brackets are in %
# Method: as §1, §9
# as §3, with “cocklebur,” for “cocklebur ,”, “The seeds were grown in a greenhouse, and at the stage of 1˜2 leaves of these plants,” for “Then,”, “leaf and stalk portions at a rate of 200 liter/10 are.” for “the soil surface.”, “for” for “f or”
# as §10, §11
# green foxtail [26] = assay: Foliar treatment test (2); details: 20th day after treatment; note: ranges in brackets are in %
# Method: as §1, §9
# as §3, with “cocklebur,” for “cocklebur ,”, “The seeds were grown in a greenhouse, and at the stage of 1˜2 leaves of these plants,” for “Then,”, “leaf and stalk portions at a rate of 200 liter/10 are.” for “the soil surface.”, “for” for “f or”
# as §10, §11
# barnyard grass [27] = assay: Submergence soil treatment test (4); details: twenty days after treatment; note: ranges in brackets are in %
# Method: as §1
# (§12) (4) Biological Test (Submergence Soil Treatment Test, Herbicide Examples 5˜9 and Comparative Examples 5˜8 and Reference Example 1 and 2)
# (§13) 1/15,500-are porcelain pots were filled with paddy field soil, and seeds of barnyard grass and umbrella plant were sown in a surface layer of the soil, and paddy rice at the 2-leaf stage was transplanted. Then, the weeds were treated by uniformly spraying a diluted solution of a predetermined amount of the herbicide prepared in the above (1) onto the water surface at the time of germination of the weeds, and then the pots were allowed to stand in a greenhouse while water was properly sprayed. […] The dosage of each herbicide is shown as an amount of the active ingredient per 10 areas. Further, air-dried weights were measured, and the herbicidal efficacy and the phytotoxicity to the paddy rice were shown as follows.
# umbrella plant = assay: Submergence soil treatment test (4); details: twenty days after treatment; note: ranges in brackets are in %
# Method: as §1, §12, §13
# paddy rice = assay: Submergence soil treatment test (4), phytotoxicity; details: twenty days after treatment
# Method: as §1, §12, §13
smiles,measurement,setting,value
Cc1ccc(S(=O)(=O)Oc2c(C(=O)c3cc(C)c4c(c3C)C(C)(C)CCS4)c(C)nn2C)cc1 [Compound 31],Phytotoxicity to corn,corn [1],0 (100)
same,Herbicidal efficacy (F): slender amaranth,slender amaranth [2],5 (0)
same,Herbicidal efficacy (E): velvetleaf,velvetleaf [3],4 (1-20)
same,Herbicidal efficacy (B): barnyard grass,barnyard grass [4],4 (1-20)
same,Herbicidal efficacy (A): large crabgrass,large crabgrass [5],5 (0)
same,Herbicidal efficacy (D): cocklebur,cocklebur [6],1 (61-80)
same,Herbicidal efficacy (C): green foxtail,green foxtail [7],3 (21-40)
"CCCS(=O)(=O)Oc1c(C(=O)c2cc(C)c3c(c2C)C(C)CCS3(=O)=O)cnn1CC (centres unmarked) [Compound 51, 4,5,8-trimethyl-6-(1-ethyl-5-n-propanesulfonyloxypyrazol-4-yl)carbonylthiochroman-1,1-dioxide]",Phytotoxicity to corn,corn [1],0 (100)
same,Herbicidal efficacy (F): slender amaranth,slender amaranth [2],5 (0)
same,Herbicidal efficacy (E): velvetleaf,velvetleaf [3],5 (0)
same,Herbicidal efficacy (B): barnyard grass,barnyard grass [4],5 (0)
same,Herbicidal efficacy (A): large crabgrass,large crabgrass [5],5 (0)
same,Herbicidal efficacy (D): cocklebur,cocklebur [6],5 (0)
same,Herbicidal efficacy (C): green foxtail,green foxtail [7],5 (0)
CCn1ncc(C(=O)c2ccc3c(c2C)C(C)(C)CCS3)c1O [Compound 2],Herbicidal Efficacy slender amaranth,slender amaranth [8]; dosage 3 g a.i./are,5 (0)
same,Herbicidal Efficacy slender amaranth,slender amaranth [8]; dosage 10 g a.i./are,5 (0)
same,Herbicidal Efficacy velvetleaf,velvetleaf [9]; dosage 3 g a.i./are,5 (0)
same,Herbicidal Efficacy velvetleaf,velvetleaf [9]; dosage 10 g a.i./are,5 (0)
same,Herbicidal Efficacy barnyard grass,barnyard grass [10]; dosage 3 g a.i./are,5 (0)
same,Herbicidal Efficacy barnyard grass,barnyard grass [10]; dosage 10 g a.i./are,5 (0)
same,Herbicidal Efficacy large crabgrass,large crabgrass [11]; dosage 3 g a.i./are,5 (0)
same,Herbicidal Efficacy large crabgrass,large crabgrass [11]; dosage 10 g a.i./are,5 (0)
same,Herbicidal Efficacy cocklebur,cocklebur [12]; dosage 3 g a.i./are,5 (0)
same,Herbicidal Efficacy cocklebur,cocklebur [12]; dosage 10 g a.i./are,5 (0)
same,Herbicidal Efficacy green foxtail,green foxtail [13]; dosage 3 g a.i./are,5 (0)
same,Herbicidal Efficacy green foxtail,green foxtail [13]; dosage 10 g a.i./are,5 (0)
same,Phyto-toxicity to corn,corn [14],0 (100)
same,Herbicidal Efficacy slender amaranth,slender amaranth [15],5 (0)
same,Herbicidal Efficacy velvetleaf,velvetleaf [16],5 (0)
same,Herbicidal Efficacy barnyard grass,barnyard grass [17],5 (0)
same,Herbicidal Efficacy large crabgrass,large crabgrass [18],5 (0)
same,Herbicidal Efficacy cocklebur,cocklebur [19],5 (0)
same,Herbicidal Efficacy green foxtail,green foxtail [20],5 (0)
same,Herbicidal Efficacy slender amaranth,slender amaranth [21]; dosage 3 g a.i./are,3 (21-40)
same,Herbicidal Efficacy slender amaranth,slender amaranth [21]; dosage 10 g a.i./are,5 (0)
same,Herbicidal Efficacy velvetleaf,velvetleaf [22]; dosage 3 g a.i./are,4 (1-20)
same,Herbicidal Efficacy velvetleaf,velvetleaf [22]; dosage 10 g a.i./are,5 (0)
same,Herbicidal Efficacy barnyard grass,barnyard grass [23]; dosage 3 g a.i./are,4 (1-20)
same,Herbicidal Efficacy barnyard grass,barnyard grass [23]; dosage 10 g a.i./are,5 (0)
same,Herbicidal Efficacy large crabgrass,large crabgrass [24]; dosage 3 g a.i./are,5 (0)
same,Herbicidal Efficacy large crabgrass,large crabgrass [24]; dosage 10 g a.i./are,5 (0)
same,Herbicidal Efficacy cocklebur,cocklebur [25]; dosage 3 g a.i./are,5 (0)
same,Herbicidal Efficacy cocklebur,cocklebur [25]; dosage 10 g a.i./are,5 (0)
same,Herbicidal Efficacy green foxtail,green foxtail [26]; dosage 3 g a.i./are,3 (21-40)
same,Herbicidal Efficacy green foxtail,green foxtail [26]; dosage 10 g a.i./are,5 (0)
"CCn1ncc(C(=O)c2ccc(S(C)(=O)=O)c(C(=O)OC)c2Cl)c1O [Comp'd A, reference compound]",Herbicidal Effficacy barnyard grass,barnyard grass [27]; dosage 1 g a.i./10 are,1 (61-80)
same,Herbicidal Effficacy barnyard grass,barnyard grass [27]; dosage 3 g a.i./10 are,4 (1-20)
same,Herbicidal Effficacy umbrella plant,umbrella plant; dosage 1 g a.i./10 are,0 (81-100)
same,Herbicidal Effficacy umbrella plant,umbrella plant; dosage 3 g a.i./10 are,4 (1-20)
same,Phyto-toxicity to corn,corn [14],0 (100)
same,Phytotoxicity to corn,corn [1],0 (100)
same,Phytotoxicity to paddy rice,paddy rice; dosage 1 g a.i./10 are,0 (100)
same,Phytotoxicity to paddy rice,paddy rice; dosage 3 g a.i./10 are,4 (0-79)
same,Herbicidal Efficacy slender amaranth,slender amaranth [15],3 (21-40)
same,Herbicidal Efficacy velvetleaf,velvetleaf [16],5 (0)
same,Herbicidal Efficacy barnyard grass,barnyard grass [17],2 (41-60)
same,Herbicidal Efficacy large crabgrass,large crabgrass [18],1 (61-80)
same,Herbicidal Efficacy cocklebur,cocklebur [19],1 (61-80)
same,Herbicidal Efficacy green foxtail,green foxtail [20],4 (1-20)
same,Herbicidal efficacy (F): slender amaranth,slender amaranth [2],3 (21-40)
same,Herbicidal efficacy (E): velvetleaf,velvetleaf [3],5 (0)
same,Herbicidal efficacy (B): barnyard grass,barnyard grass [4],2 (41-60)
same,Herbicidal efficacy (A): large crabgrass,large crabgrass [5],1 (61-80)
same,Herbicidal efficacy (D): cocklebur,cocklebur [6],1 (61-80)
same,Herbicidal efficacy (C): green foxtail,green foxtail [7],4 (1-20)
